Experimental data as given in patent publication US11753409B2, “Crystalline salts of a B-RAF kinase inhibitor” (Xynomic Pharmaceuticals, Inc., priority 2017, dated 2023).
“Also recorded” adds a separate entry of the source.

Key:
Format in all cases: physicochemical
[1] = DVS isotherm of Form A (hygroscopicity)
Description: DVS was measured via a SMS (Surface Measurement Systems) DVS Intrinsic. The relative humidity at 25° C. was calibrated against the deliquescence point of LiCl, Mg(NO3)2 and KCl.
To investigate the solid form stability as a function of humidity, a DVS isotherm plot of Form A of N-(3-(5-((1-ethylpiperidin-4-yl)(methyl)amino)-3-(pyrimidin-5-yl)-1H-pyrrolo[3,2-b]pyridin-1-yl)-2,4-difluorophenyl)propane-1-sulfonamide monosuccinate salt was collected at 25° C. between 0 and 95% RH.

[2] = Equilibrium solubility of Form A in water
Description: Equilibrium solubility of Form A in water was measured at room temperature. The solid was suspended into H2O (˜800 rpm) at rt. After 24 h., the suspension was centrifuged (10000 rpm, 5 min) followed by filtration (0.45 μm PTFE membrane). The supernatant (first few drops were discarded) was analyzed by HPLC and the pH was measured. The residual solid was analyzed by XRPD.

[3] = Solid state stability evaluation
Description: Samples of Form A of N-(3-(5-((1-ethylpiperidin-4-yl)(methyl)amino)-3-(pyrimidin-5-yl)-1H-pyrrolo[3,2-b]pyridin-1-yl)-2,4-difluorophenyl)propane-1-sulfonamide monosuccinate salt were stored under at 80° C. for one day, at 25° C. under 60% RH and at 40° C. under 75% RH for one week.

[4] = Heating to 170° C. and cooling to room temperature; details: heated to 170° C., cooled to room temperature
Description: Further XRPD, TGA, DSC and ^1H NMR analyses were performed after heating succinate Form A to 170° C. and then cooling to room temperature.

[5] = 25 ° C., 60% RH/1 week (second condition column)
[6] = 25 ° C., 60% RH/1 week (third condition column)

SMILES: CCCS(=O)(=O)Nc1ccc(F)c(-n2cc(-c3cncnc3)c3nc(N(C)C4CCN(CC)CC4)ccc32)c1F.O=C(O)CCC(=O)O [Monosuccinate Salt, N-(3-(5-((1-Ethylpiperidin-4-yl)(methyl)amino)-3-(pyrimidin-5-yl)-1H-pyrrolo[3,2-b]pyridin-1-yl)-2,4-difluorophenyl)propane-1-sulfonamide monosuccinate salt]
- Water uptake (DVS) ([1]; 25° C./80% RH): 0.14%
- Hygroscopicity ([1]; DVS at 25° C., 0 to 95% RH, listed as Form A, monosuccinate salt): non-hygroscopic; also recorded: low hygroscopicity
- Form change after DVS testing (XRPD) ([1]; listed as Form A, monosuccinate salt): did not result in any form change; also recorded: does not change form
- Form change during equilibrium solubility testing (XRPD) ([2]; rt, 24 h, listed as Form A, monosuccinate salt): no form change; also recorded: does not change
- solubility thermodynamic at 24 h ([2]; thermodynamic from solid, room temperature, HPLC): 14.3 mg/mL
- Form Change [3, 5]: No
- Purity (% of Initial) [3, 5]: 100.0 % of Initial
- Form Change [3, 6]: No
- Purity (% of Initial) [3, 6]: 100.1 % of Initial
- Form Change ([3]; 80% C/1 day): No
- Purity (% of Initial) ([3]; 80% C/1 day): 99.9 % of Initial
- Solid state stability, form change or HPLC purity decrease ([3]; any of the storage conditions): No form change or HPLC purity decrease were observed
- Crystalline form after heating (XRPD) [4]: still succinate Type A
